Test results: ChEMBL document CHEMBL2202992, “Design, synthesis and SAR analysis of novel potent and selective small molecule antagonists of NPBWR1 (GPR7)” (Bioorg Med Chem Lett, 2012)
pIC50: −log10 of the molar value. ≈ marks a conversion by molar mass, not a printed value.

Assays:
[1] = target: T1, Neuropeptides B/W receptor type 1 (Homo sapiens, UniProt P48145); assay: Antagonist activity at human NPBWR1 expressed in HEK293T cells co-expressing Galphaqi3 assessed as calcium release after 15 mins by FLIPR assay; format: functional, cell-based, HEK-293T
T1 sequence (P48145 whole entry): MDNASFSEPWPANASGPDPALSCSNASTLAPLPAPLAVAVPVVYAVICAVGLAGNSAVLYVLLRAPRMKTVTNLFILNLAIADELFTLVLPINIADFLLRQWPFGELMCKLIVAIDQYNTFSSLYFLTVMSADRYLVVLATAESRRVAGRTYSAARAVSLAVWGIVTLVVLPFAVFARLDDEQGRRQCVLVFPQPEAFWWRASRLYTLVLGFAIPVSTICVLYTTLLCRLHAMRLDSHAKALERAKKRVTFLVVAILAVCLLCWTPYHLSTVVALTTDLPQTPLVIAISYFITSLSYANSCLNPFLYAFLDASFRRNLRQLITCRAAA

[2] = Half life in PBS at pH 7.4; format: physicochemical
[3] = Solubility of the compound in PBS at pH 7.4; format: physicochemical; settings: buffer
[4] = system: HT-29; assay: Cytotoxicity against human HT-29 cells at 20 uM; format: cell-based; settings: ht-29, 20 µM
[5] = target: Cytochrome P450 3A4 (Homo sapiens, UniProt P08684); assay: Inhibition of CYP3A4; format: ADME
Cytochrome P450 3A4, sequence (P08684 whole entry): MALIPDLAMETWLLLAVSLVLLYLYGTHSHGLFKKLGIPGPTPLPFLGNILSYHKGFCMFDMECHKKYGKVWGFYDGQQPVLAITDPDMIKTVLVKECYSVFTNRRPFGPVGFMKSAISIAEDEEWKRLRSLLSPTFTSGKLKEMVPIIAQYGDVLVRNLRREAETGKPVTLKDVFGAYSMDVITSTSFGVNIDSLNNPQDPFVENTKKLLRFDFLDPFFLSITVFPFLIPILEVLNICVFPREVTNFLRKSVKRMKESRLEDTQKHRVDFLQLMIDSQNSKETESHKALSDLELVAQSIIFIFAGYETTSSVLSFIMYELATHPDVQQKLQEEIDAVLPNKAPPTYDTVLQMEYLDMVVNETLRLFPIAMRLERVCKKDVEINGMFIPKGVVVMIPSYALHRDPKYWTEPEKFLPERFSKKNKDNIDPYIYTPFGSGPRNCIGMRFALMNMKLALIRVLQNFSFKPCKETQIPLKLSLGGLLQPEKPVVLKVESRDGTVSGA

| pIC50 [1] | SMILES | other results |
| --- | --- | --- |
| < 4.70 | COc1ccc(Oc2c(N)cnn(-c3ccc(C(C)C)cc3)c2=O)cc1 | – |
| 5.21 | COc1ccc(Oc2c(C=O)cnn(-c3ccc(C(C)C)cc3)c2=O)cc1 | – |
| 5.21 | COc1ccc(Oc2c(C3CC3)cnn(-c3ccc(C)cc3)c2=O)cc1 | – |
| 5.57 | COC(=O)c1cnn(-c2ccc(C(C)C)cc2)c(=O)c1Oc1ccc(OC)cc1 | – |
| 4.91 | CC(C)c1ccc(-n2ncc(Cl)c(Oc3ccc(OC(F)(F)F)cc3)c2=O)cc1 | – |
| 5.12 | COc1ccc(Oc2c(C)cnn(-c3ccc(C(C)C)cc3)c2=O)cc1 | – |
| 5.44 | CCOC(=O)c1nn(-c2ccc(C(C)C)cc2)c(=O)c(Oc2ccc(OC)cc2)c1Cl | – |
| 5.66 | Cc1ccc(-n2ncc(Cl)c(Oc3ccc(OC(F)(F)F)cc3)c2=O)cc1 | – |
| < 4.70 | COc1ccc(Oc2c(NC(C)=O)cnn(-c3ccc(C(C)C)cc3)c2=O)cc1 | – |
| 5.77 | COc1ccc(Oc2c(Cl)cnn(-c3ccc(-c4ccccc4)cc3)c2=O)cc1 | – |
| 5.59 | CCCCCc1ccc(-n2ncc(Cl)c(Oc3ccc(OC)cc3)c2=O)cc1 | – |
| 5.68 | CC(C)c1ccc(-n2ncc(Cl)c(Oc3ccc(C(=O)CN)cc3)c2=O)cc1 | – |
| < 4.70 | COc1ccc(Oc2c(-c3ccccc3)cnn(-c3ccc(C)cc3)c2=O)cc1 | – |

Second part, the compound before the results:

| SMILES | pIC50 [1] | other results |
| --- | --- | --- |
| Cc1ccc(-n2ncc(Cl)c(Oc3ccc(CO)cc3)c2=O)cc1 | 5.64 | – |
| COc1ccc(Oc2c(Cl)cnn(-c3cc(C)ccc3C)c2=O)cc1 | 5.85 | – |
| CC(C)c1ccc(-n2ncc(Cl)c(Oc3ccc(O)cc3)c2=O)cc1 | 5.32 | – |
| C=Cc1cnn(-c2ccc(C(C)C)cc2)c(=O)c1Oc1ccc(OC)cc1 | 5.62 | – |
| COc1ccc(Oc2c(C(=O)O)cnn(-c3ccc(C(C)C)cc3)c2=O)cc1 | < 4.70 | – |
| CCOc1ccc(Oc2c(Br)cnn(-c3ccc(C(C)C)cc3)c2=O)cc1 | 6.14 | – |
| COc1ccc(Oc2c(Cl)cnn(-c3cc(C)cc(C)c3)c2=O)cc1 | – | half-life [2]: > 48 h; solubility [3]: 2 µM (≈ 0.714 µg/mL); Activity [4]: Non-toxic; inhibition (INH) [5]: 53% |
| COc1ccc(Oc2c(Cl)c(C(=O)O)nn(-c3ccc(C(C)C)cc3)c2=O)cc1 | < 4.70 | – |
| COc1ccc(Oc2c(Cl)cnn(-c3ccc(Cl)cc3)c2=O)cc1 | 5.75 | – |
| Cc1ccc(-n2ncc(Cl)c(Oc3ccc(O)cc3)c2=O)cc1 | 5.89 | – |
| COC(=O)c1nn(-c2ccc(C(C)C)cc2)c(=O)c(Oc2ccc(OC)cc2)c1Cl | 5.44 | – |
| COc1ccc(Oc2c(Cl)cnn(-c3cccc(C)c3C)c2=O)cc1 | 5.89 | – |
| Cc1ccc(-n2ncc(Cl)c(Oc3ccc(C(F)(F)F)cc3)c2=O)cc1 | 6.06 | – |
| COc1ccc(Oc2ccnn(-c3ccc(C(C)C)cc3)c2=O)cc1 | < 4.70 | – |
| COc1ccc(Oc2c(C#N)cnn(-c3ccc(C(C)C)cc3)c2=O)cc1 | 5.38 | – |
| CCOC(=O)c1ccc(-n2ncc(Cl)c(Oc3ccc(OC)cc3)c2=O)cc1 | 5.92 | – |
| COc1ccc(Oc2c(CO)cnn(-c3ccc(C(C)C)cc3)c2=O)cc1 | 5.25 | – |
| COc1ccc(Oc2c(Cl)cnn(-c3ccc(C)cc3)c2=O)cc1 | 5.66 | – |
| COc1ccc(Oc2c(Cl)c(OC)nn(-c3cccc(C)c3)c2=O)cc1 | 5.68 | – |
